In patent publication US8524730B2, “Spirochromanone carboxylic acids” (MSD K.K., priority 2008, dated 2013):

What was measured:
human ACC2 = human ACC2 (Homo sapiens, UniProt O00763); assay: Acetyl CoA carboxylase (ACC) activity inhibition test, human ACC2; type: biochemical; conditions: 1 μmol/liter compound; read-out: Inhibition (%) by 1 μmol/liter Chemical, human ACC2
Procedure: (§1) A. Pharmacological Test Example (Acetyl CoA Carboxylase (ACC) Activity Inhibition Test)
(§2) A test compound is dissolved in dimethyl sulfoxide (DMSO) to a concentration of 10 mM and then diluted with DMSO to give a 100-fold concentrated solution of the compound compared with target assay concentration. The ACC enzyme activity inhibition test is carried out according to a modification of Thampy & Wakil's method (J. Biol. Chem., Vol. 260, pp. 6318-6323 (1985)). Concretely, 0.8 μl of the diluted test compound is added to each well of 96-well assay plate (Perkin Elmer Opti Plate), then 40 μl of a substrate solution (50 mM Hepes sodium (pH 7.5), 2 mM DTT, 10 mM ATP, 500 μM acetyl CoA, 0.17 mM NaH[^14C]O3 (58 mCi/mmol by Amersham), 8 mM NaHCO3) is added to each well, and 40 μL of an enzyme solution (1 to 2 nM human ACC1 or human ACC2, 50 mM Hepes sodium (pH 7.5), 2 mM DTT, 40 mM MgCl2, 40 mM tripotassium citrate 1 mg/ml fetal bovine serum albumin) is added thereto. Then, the upper side of the plate is sealed up, and the plate is incubated with gently stirring at 37° C. for 40 minutes. Next, 20 μl of 1 N HCl is added to each well to stop the enzyme reaction, and the assay plate is stirred overnight to remove the unreacted NaH[^14C]O3. Next, 100 μl of a scintillator (Perkin Elmer's Microscinti 40) is added to each well and the plate is stirred, then the radioactivity of the fixed [^14C] is counted using a microplate scintillation counter (Perkin Elmer's Topcount), the radioactivity of which represents the enzyme activity in each well. The human ACC1 and human ACC2 enzyme-inhibition activities of the test compounds are calculated, based on the radioactivity of the well added by DMSO without test compound as a control.

human ACC1 = human ACC1 (Homo sapiens, UniProt Q13085); assay: Acetyl CoA carboxylase (ACC) activity inhibition test, human ACC1; type: biochemical; conditions: 1 μmol/liter compound; read-out: Inhibition (%) by 1 μmol/liter Chemical, human ACC1
Procedure: as §1, §2

Chain of human ACC2 (O00763 whole entry): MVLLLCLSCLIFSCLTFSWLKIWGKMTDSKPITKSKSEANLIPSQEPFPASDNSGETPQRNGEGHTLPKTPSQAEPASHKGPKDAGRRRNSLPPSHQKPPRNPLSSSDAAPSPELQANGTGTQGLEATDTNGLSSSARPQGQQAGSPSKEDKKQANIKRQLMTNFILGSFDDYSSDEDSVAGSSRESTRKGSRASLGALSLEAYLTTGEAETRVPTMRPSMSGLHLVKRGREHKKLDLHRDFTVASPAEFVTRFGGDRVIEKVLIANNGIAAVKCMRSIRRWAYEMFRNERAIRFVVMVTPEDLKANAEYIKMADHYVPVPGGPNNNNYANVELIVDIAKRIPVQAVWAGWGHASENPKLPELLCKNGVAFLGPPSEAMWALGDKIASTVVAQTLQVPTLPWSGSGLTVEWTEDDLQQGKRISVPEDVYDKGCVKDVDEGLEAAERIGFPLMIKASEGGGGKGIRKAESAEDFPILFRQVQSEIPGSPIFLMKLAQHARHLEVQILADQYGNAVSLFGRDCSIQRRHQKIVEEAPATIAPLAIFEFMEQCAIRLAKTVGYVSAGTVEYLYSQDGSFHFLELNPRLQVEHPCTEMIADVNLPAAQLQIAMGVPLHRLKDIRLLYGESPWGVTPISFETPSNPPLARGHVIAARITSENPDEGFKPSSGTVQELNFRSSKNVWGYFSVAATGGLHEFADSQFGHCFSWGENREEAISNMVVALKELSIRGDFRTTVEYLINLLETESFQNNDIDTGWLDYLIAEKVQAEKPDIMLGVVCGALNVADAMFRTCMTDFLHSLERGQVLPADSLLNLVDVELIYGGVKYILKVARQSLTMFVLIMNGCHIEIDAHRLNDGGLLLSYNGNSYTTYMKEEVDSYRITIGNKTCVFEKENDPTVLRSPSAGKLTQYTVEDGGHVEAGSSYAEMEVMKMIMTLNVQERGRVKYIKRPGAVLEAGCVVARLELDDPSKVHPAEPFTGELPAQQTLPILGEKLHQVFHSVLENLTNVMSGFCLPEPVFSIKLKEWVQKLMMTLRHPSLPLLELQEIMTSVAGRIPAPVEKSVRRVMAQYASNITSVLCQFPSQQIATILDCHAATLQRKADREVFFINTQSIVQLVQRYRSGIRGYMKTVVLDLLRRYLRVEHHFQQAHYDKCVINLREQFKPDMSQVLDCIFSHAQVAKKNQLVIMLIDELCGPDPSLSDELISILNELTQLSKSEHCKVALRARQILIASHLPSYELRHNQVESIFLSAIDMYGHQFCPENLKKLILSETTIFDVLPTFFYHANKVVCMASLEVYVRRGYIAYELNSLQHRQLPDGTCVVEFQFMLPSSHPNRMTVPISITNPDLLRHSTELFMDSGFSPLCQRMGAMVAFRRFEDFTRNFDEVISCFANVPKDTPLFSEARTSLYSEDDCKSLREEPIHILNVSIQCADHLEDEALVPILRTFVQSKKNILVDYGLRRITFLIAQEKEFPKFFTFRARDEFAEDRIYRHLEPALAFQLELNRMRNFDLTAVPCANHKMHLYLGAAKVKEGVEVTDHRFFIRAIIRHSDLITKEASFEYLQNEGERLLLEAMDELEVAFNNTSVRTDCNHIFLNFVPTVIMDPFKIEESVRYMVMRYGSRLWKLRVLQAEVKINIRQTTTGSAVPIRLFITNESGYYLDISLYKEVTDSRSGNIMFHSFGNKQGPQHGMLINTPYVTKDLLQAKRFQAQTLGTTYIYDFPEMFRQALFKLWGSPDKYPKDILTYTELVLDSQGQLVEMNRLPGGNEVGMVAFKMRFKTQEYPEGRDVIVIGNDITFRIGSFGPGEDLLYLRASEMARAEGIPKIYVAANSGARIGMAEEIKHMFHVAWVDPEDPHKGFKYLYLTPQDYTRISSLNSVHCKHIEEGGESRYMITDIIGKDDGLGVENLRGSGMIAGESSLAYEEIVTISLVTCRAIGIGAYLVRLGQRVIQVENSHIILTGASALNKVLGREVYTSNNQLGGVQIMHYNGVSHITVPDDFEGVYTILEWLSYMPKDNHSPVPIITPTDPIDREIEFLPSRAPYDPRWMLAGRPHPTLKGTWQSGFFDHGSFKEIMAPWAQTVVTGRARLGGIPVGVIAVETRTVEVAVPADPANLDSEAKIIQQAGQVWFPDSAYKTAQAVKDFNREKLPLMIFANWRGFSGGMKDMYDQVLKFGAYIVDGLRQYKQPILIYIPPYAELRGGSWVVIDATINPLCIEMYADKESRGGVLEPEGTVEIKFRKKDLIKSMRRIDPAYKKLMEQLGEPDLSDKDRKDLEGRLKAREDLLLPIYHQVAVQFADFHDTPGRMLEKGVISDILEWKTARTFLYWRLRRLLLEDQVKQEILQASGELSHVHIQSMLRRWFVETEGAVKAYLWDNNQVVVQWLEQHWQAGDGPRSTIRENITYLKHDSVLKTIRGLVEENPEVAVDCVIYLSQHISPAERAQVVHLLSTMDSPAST

| Compound | inhibition at 1 µM (human ACC2) [%] | inhibition at 1 µM (human ACC1) [%] |
| --- | --- | --- |
| CCOc1cc(C(=O)N2CCC3(CC2)CC(=O)c2cc(-c4ccc(C(N)=O)cc4)ccc2O3)cc(OCC)c1-c1ccc(C(=O)O)cc1 [Example 3, 4′-({6-(4-Carbamoylphenyl)-4-oxospiro[chroman-2,4′-piperidin]-1′-yl}carbonyl)-2′,6′-diethoxybiphenyl-4-carboxylic acid] | 99 | 100 |
| CCOc1cc(C(=O)N2CCC3(CC2)CC(=O)c2cc(-c4ccc(C(N)=O)cn4)ccc2O3)cc(OCC)c1-c1ccc(C(=O)O)cc1 [Example 5] | 99 | 98 |
| Cc1nn(-c2ccc(C(=O)O)cc2)c2ccc(C(=O)N3CCC4(CC3)CC(=O)c3cc(-c5cnn(C)c5)ccc3O4)cc12 [Example 13, 4-(3-Methyl-5-{[6-(1-methyl-1H-pyrazol-4-yl)-4-oxospiro[chroman-2,4′-piperidin]-1′-yl]carbonyl}-1H-indazol-1-yl)benzoic acid] | 99 | 99 |
| CCOc1cc(C(=O)N2CCC3(CC2)CC(=O)c2cc(-c4cnn(C)c4)ccc2O3)cc(OCC)c1-c1ccc(C(=O)O)cc1 [Example 18, Sodium 2′,6′-diethoxy-4′-{[6-(1-methyl-1H-pyrazol-4-yl)-4-oxospiro[chroman-2,4′piperidin]-1′-yl]carbonyl}biphenyl-4-carboxylate] | 100 | 99 |
| CCOc1cc(C(=O)N2CCC3(CC2)CC(=O)c2cc(-c4cnn(C)c4)ccc2O3)cc(OCC)c1-c1cccc(C(=O)O)c1 [Example 20, Sodium 2′,6′-diethoxy-4′-{[6-(1-methyl-1H-pyrazol-4-yl)-4-oxospiro[chroman-2,4′-piperidin]-1′-yl]carbonyl}biphenyl-3-carboxylate] | 99 | 100 |
| CCOc1cc(C(=O)N2CCC3(CC2)CC(=O)c2cc(-c4cnn(C)c4)ccc2O3)cc(OCC)c1-c1cncc(C(=O)O)c1 [Example 21, 5-(2,6-Diethoxy-4-{[6-(1-methyl-1H-pyrazol-4-yl)-4-oxospiro[chroman-2,4′-piperidin]-1′-yl]carbonyl}phenyl)nicotinic acid] | 100 | 100 |
